Measured values from patent publication US20210300924A1, “5-[6-[[3-(4,5,6,7-TETRAHYDROPYRAZOLO[4,3-C]PYRIDIN-1-YL)AZETIDIN-1-YL]METHYL]MORPHOLIN-4-YL]QUINOLINE-8-CARBONITRILE DERIVATIVES AND SIMILAR COMPOUNDS AS TLR7-9 ANTAGONISTS FOR TREATING SYSTEMIC LUPUS ERYTHEMATOSUS” (Hoffmann-La Roche Inc., priority 2018, published 2021).
Read-outs that look alike come from different tables or passages of the source.

How the values were obtained:
TLR9 [1] = target: T1, TLR9 (Homo sapiens, UniProt Q9NR96); set-up: host or cells: HEK cells; conditions: data disclosed in US20150105370; read-out: HEK/hTLR9 IC50; cited from earlier work
T1 sequence (Q9NR96 26-1032): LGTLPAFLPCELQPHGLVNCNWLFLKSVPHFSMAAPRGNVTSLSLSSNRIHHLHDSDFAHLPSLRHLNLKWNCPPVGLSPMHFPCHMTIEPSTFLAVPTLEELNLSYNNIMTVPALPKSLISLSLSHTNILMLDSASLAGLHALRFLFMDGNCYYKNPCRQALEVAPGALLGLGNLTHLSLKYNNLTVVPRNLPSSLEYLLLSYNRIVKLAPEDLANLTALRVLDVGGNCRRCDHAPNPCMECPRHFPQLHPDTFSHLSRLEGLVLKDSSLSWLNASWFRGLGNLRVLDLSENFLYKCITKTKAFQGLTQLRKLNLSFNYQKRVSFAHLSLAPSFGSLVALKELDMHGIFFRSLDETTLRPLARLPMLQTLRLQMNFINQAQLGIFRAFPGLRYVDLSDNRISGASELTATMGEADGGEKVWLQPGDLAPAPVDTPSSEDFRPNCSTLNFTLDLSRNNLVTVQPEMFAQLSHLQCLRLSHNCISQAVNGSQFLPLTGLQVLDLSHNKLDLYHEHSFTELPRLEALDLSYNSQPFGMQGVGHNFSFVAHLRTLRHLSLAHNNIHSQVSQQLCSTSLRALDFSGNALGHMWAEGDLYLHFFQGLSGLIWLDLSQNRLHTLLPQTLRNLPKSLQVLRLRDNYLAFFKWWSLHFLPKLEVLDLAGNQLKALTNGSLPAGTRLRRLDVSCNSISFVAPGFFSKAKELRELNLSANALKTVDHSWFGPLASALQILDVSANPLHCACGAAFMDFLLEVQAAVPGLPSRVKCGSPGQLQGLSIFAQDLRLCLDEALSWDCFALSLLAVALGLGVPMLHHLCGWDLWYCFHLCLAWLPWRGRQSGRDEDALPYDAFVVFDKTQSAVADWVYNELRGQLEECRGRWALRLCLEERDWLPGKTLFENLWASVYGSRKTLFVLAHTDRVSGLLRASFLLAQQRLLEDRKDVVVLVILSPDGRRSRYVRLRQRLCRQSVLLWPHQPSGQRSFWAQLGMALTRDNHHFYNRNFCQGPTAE

hERG channel = target: T2, hERG channel (Homo sapiens, UniProt Q12809); assay: hERG channel inhibition assay (patch-clamp, CHOhERG cells); type: cell-based; conditions: for safety window (hERG IC20/TLR7/8/9 IC50) compared to the compounds of this invention: in words; for hERG IC20/TLR7 IC50 / hERG IC20/TLR9 IC50 / hERG IC20/TLR8 IC50: safety ratio, >30 suggests sufficient window
T2 construct: expressed in transfected cells; host or cells: CHO (Chinese hamster ovary), CHOhERG
Procedure: hERG Channel Inhibition Assay:
The hERG K^+ channels were cloned in humans and stably expressed in a CHO (Chinese hamster ovary) cell line. CHOhERG cells were used for patch-clamp (voltage-clamp, whole-cell) experiments. Cells were stimulated by a voltage pattern to activate hERG channels and conduct hERG currents (rapid delayed outward rectifier potassium current of the hERG channel). After the cells were stabilized for a few minutes, the amplitude and kinetics of IKhERG were recorded at a stimulation frequency of 0.1 Hz (6 bpm). Thereafter, the test compound was added to the preparation at increasing concentrations. For each concentration, an attempt was made to reach a steady-state effect, usually, this was achieved within 3-10 min at which time the next highest concentration was applied. The amplitude and kinetics of IKhERG are recorded in each concentration of the drug which were compared to the control values (taken as 100%). (references: Redfern W S, Carlsson L, Davis A S, Lynch W G, MacKenzie I, Palethorpe S, Siegl P K, Strang I, Sullivan A T, Wallis R, Camm A J, Hammond T G. 2003; Relationships between preclinical cardiac electrophysiology, clinical QT interval prolongation and torsade de pointes for a broad range of drugs: evidence for a provisional safety margin in drug development. Cardiovasc. Res. 58:32-45, Sanguinetti MC, Tristani-Firouzi M. 2006; hERG potassium channels and cardiac arrhythmia. Nature 440:463-469, Webster R, Leishman D, Walker D. 2002; Towards a drug concentration effect relationship for QT prolongation and torsades de pointes. Curr. Opin. Drug Discov. Devel. 5:116-26).

TLR9 [2] = target: T1, TLR9; assay: Human PBMC cell-based assay; set-up: endogenous in cells; host or cells: human PBMC from healthy donor whole blood; conditions: CpG ODN 2216 stimulation, overnight, cytokine readout, read-out: hPBMC/TLR9 IC50
Description: Human PBMC Cell-Based Assay
Unlike the HEK reporter cell lines, human peripheral blood mononuclear cell (PBMC) represents primary human immune cells in blood mainly consisting of lymphocytes, monocytes, and dendritic cells. These cells express TLR7, TLR8, or TLR9, and therefore are natural responders to respective ligand stimulation. Upon activation of these TLRs, PBMCs secrete similar cytokines and chemokines in vitro and in vivo, and therefore the in vitro potency of a TLR7/8/9 antagonist in human PBMC is readily translatable to its pharmacodynamics response in vivo.
Human peripheral blood mononuclear cells (PBMC) were isolated from freshly-drawn lithium-heparinized (Lithium Heparin Plus blood Collection tube, BD Vacutainer®) healthy donor whole blood by density gradient (Ficoll-Paque™ PLUS, GE Healthcare life Sciences). Briefly, […] was diluted with 25 mL PBS (without Ca^2+, Mg^2+) in a 50 mL conical tube with porous barrier (Leucosep tube, Greiner bio-one), where 15.5 mL Ficoll-Paque was under laid after spinning. Tubes were centrifuged for 20 minutes at 800×g (1946 rpm) with the brake in the off position, and PBMC were collected from the buffy coat. Cells were then washed twice in PBS, and red blood cells were lysed by suspension in 2 mL (Red Blood Cell Lysis Buffer, Alfa Aesar) for 5-10 minutes at room temperature. After a final wash in PBS, PBMC were resuspended at a final concentration of 2×10^6 cells/mL in RPMI-1640 media with GlutaMAX™ (Gibco) supplemented with 10% Fetal Bovine Serum (Sigma) and plated at 150 μL/well (3×10^5 cells/well) in tissue culture treated round bottom 96-well plates (Corning Incorporated). Antagonist compounds (compounds of this invention) solubilized and serial diluted in 100% DMSO were added in duplicate to cells to yield a final concentration of 1% DMSO (v/v). PBMC were incubated with antagonist compounds for 30 minutes at 37° C., 5% CO2 before adding various TLR agonist reagents in 48 μL complete media per well as follows (final concentrations indicated): CpG ODN 2216 (InvivoGen) at […] for TLR9, ORN 06/LyoVec (InvivoGen) at 1 μg/mL for TLR8 and R848 (InvivoGen) at 1 μg/mL for TLR7 and TLR8. PBMC were incubated overnight at 37° C. with 5% CO2. Cell culture supernatants were collected, and levels of various human cytokines were assessed by Luminex assay (ProcartaPlex™ Multiplex Immunoassay, Invitrogen) or ELISA procedure according to the manufacturer's recommended protocol (eBioscience, ThermoFisher Scientific). Viability of the cells was also checked with Cell Viability Assay (CellTiter Glo® Luminescent Cell Viability Assay, Promega).

T2 sequence (Q12809 whole entry): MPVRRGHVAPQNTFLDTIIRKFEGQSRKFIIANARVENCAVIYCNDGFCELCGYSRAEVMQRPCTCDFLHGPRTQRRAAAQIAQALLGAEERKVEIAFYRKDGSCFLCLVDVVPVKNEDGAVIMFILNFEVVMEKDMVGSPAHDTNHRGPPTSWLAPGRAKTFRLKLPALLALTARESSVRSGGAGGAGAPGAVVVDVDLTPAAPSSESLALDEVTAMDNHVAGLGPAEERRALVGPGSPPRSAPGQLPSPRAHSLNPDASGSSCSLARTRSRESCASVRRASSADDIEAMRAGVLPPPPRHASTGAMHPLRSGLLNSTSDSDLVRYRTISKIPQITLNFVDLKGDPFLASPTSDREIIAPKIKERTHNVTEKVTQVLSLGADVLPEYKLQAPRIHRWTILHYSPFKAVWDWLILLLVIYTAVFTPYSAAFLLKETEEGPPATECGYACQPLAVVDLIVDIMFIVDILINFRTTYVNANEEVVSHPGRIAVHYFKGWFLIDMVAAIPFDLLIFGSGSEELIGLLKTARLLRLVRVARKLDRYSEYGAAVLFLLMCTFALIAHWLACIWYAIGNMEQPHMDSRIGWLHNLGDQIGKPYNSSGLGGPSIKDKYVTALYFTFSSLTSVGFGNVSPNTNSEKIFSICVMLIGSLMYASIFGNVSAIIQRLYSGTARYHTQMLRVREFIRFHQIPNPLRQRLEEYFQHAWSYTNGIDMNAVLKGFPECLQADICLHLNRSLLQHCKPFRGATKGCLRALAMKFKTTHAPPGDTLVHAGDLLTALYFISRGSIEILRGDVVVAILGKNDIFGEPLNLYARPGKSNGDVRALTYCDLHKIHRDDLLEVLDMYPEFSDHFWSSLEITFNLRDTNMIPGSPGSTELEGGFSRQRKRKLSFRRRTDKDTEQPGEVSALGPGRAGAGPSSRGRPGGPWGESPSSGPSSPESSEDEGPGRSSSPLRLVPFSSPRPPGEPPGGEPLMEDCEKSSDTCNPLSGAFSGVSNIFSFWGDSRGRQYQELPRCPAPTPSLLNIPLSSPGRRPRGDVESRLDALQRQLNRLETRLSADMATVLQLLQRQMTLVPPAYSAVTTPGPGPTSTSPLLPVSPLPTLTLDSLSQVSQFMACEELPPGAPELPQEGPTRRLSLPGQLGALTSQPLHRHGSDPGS

SMILES: C[C@@H]1CN(c2ccc(C#N)c3ncccc23)C[C@H](CN2CCN(c3ccccc3)CC2)O1 [ER-887258, reference compound]
- IC50 (TLR9 [1]): > 2 µM
- safety window (hERG IC20/TLR7/8/9 IC50) compared to the compounds of this invention (hERG channel): much narrower safety window
- hERG IC20/TLR7 IC50 (hERG channel): 8.1
- hERG IC20/TLR9 IC50 (hERG channel): 0.3

SMILES: C[C@@H]1CN(c2ccc(C#N)c3ncccc23)C[C@H](CN2CC[C@@H](NC(=O)c3ccccc3)C2)O1 [ER-894544]
- IC50 (TLR9 [1]): > 6.2 µM

SMILES: C[C@@H]1CN(c2ccc(C#N)c3ncccc23)C[C@H](CN2CCN(c3ccc(Cl)cc3)CC2)O1 [Example R2, 5-[(2S,6R)-2-[[4-(4-chlorophenyl)piperazin-1-yl]methyl]-6-methyl-morpholin-4-yl]quinoline-8-carbonitrile, reference compound]
- safety window (hERG IC20/TLR7/8/9 IC50) compared to the compounds of this invention (hERG channel): much narrower safety window
- hERG IC20/TLR7 IC50 (hERG channel): 1.3
- hERG IC20/TLR8 IC50 (hERG channel): 0.8
- hERG IC20/TLR9 IC50 (hERG channel): 0.04

SMILES: C[C@@H]1CN(c2ccc(C#N)c3ncccc23)C[C@H](CN2CCN(c3ccncc3)CC2)O1 [ER-888286, reference compound]
- IC50 (TLR9 [2]): 1.63 µM
- IC50 (TLR9 [1]): > 2 µM
- safety window (hERG IC20/TLR7/8/9 IC50) compared to the compounds of this invention (hERG channel): much narrower safety window
- hERG IC20/TLR7 IC50 (hERG channel): 0.3
- hERG IC20/TLR9 IC50 (hERG channel): 0.2

SMILES: Cc1nn(C)cc1S(=O)(=O)NC1CCN(C[C@H]2CN(c3ccc(C#N)c4ncccc34)C[C@@H](C)O2)CC1 [ER-894160]
- IC50 (TLR9 [1]): > 10 µM

SMILES: COc1ccc(N2CCN(C[C@H]3CN(c4ccc(C#N)c5ncccc45)C[C@@H](C)O3)CC2)cc1 [Example R1, 5-[(2S,6R)-2-[[4-(4-methoxyphenyl)piperazin-1-yl]methyl]-6-methyl-morpholin-4-yl]quinoline-8-carbonitrile, reference compound]
- safety window (hERG IC20/TLR7/8/9 IC50) compared to the compounds of this invention (hERG channel): much narrower safety window
- hERG IC20/TLR7 IC50 (hERG channel): 9.3
- hERG IC20/TLR8 IC50 (hERG channel): 6.2
- hERG IC20/TLR9 IC50 (hERG channel): 0.1

SMILES: C[C@@H]1CN(c2ccc(C#N)c3ncccc23)C[C@H](CN2CC(NS(=O)(=O)c3ccc(F)cc3)C2)O1 [ER-894155]
- IC50 (TLR9 [1]): > 10 µM

SMILES: C[C@@H]1CN(c2ccc(C#N)c3ncccc23)C[C@H](CN2CCN(c3ccccn3)CC2)O1 [ER-888285, reference compound]
- IC50 (TLR9 [1]): > 2 µM
- safety window (hERG IC20/TLR7/8/9 IC50) compared to the compounds of this invention (hERG channel): much narrower safety window
- hERG IC20/TLR7 IC50 (hERG channel): 8.4
- hERG IC20/TLR9 IC50 (hERG channel): 0.5
